Measurements: a melting point compilation (Tetko et al.; mined from patent text by program, amines drawn as free bases though some values may be those of a salt)

Row | Structure (SMILES) | melting point [°C]
1 | CCOc1nc2c(nc1C(=O)Nc1nccs1)c(C)nn2CC | 158 to 159
2 | CC(C)n1nc(-c2sc(C(N)=O)nc2-c2cccc(F)c2)ccc1=O | 248 to 250
3 | O=S(=O)(O)CC(O)CNCC(O)O (stereo unspecified) | 189 to 190
4 | Cc1cc(-c2cc3cc(OCCNC[C@H](O)c4cccc(Cl)c4)ccc3o2)no1 | 108 to 110
5 | COc1ccc(C(=O)C=Cc2cc(Br)ccc2O)cc1 | 177 to 179
6 | CCCCCCCCNC(=O)n1cc(F)c(=O)[nH]c1=O | 98 to 100
7 | CCNC(=S)N(C)c1cn(-c2cccnc2)nc1Cl | 160 to 162
8 | O=S(=O)(c1ccc2ccc(Br)cc2c1)N(Cc1ccccc1)Cc1ccccc1 | 127 to 129
9 | N#CN1C2CCC1CC(c1n[nH]c3cc(F)ccc13)C2 (stereo unspecified) | 182 to 184
10 | CCOC(=O)c1c(C)nc(N2CCN(C)CC2)c2nnn(CC)c12 | 63 to 65
11 | CC(C)Sc1cc2c(cc1Cl)N=C(C(N)=O)NS2(=O)=O | 279 to 280
12 | CCCCOc1c(N(C)C(=O)OC(C)(C)C)n(CC(C)(C)C)c(=O)c2ccc(O)cc12 | 196 to 197
13 | CCOC(=O)CN1C(=O)C(NC(=O)Nc2cccc(C)c2)N=C(C)c2cccc(C)c21 (stereo unspecified) | 230 to 231
14 | CCCCn1c(=O)c2c(ncn2S(=O)(=O)c2c(C)noc2C)n(CCCC)c1=O | 103 to 105
15 | O=C(NCc1ccc2c(c1)OCO2)c1ccc2[nH]c(=O)n(Cc3ccc(Cl)cc3)c(=O)c2c1 | 290
16 | CCCc1ccc(CCNC(C)=O)cc1 | 52
17 | CC(C)(C)Oc1cccc(C[C@@H](C(=O)O)[C@@H](O)c2ccc(F)cc2)c1 (racemic) | 131 to 132
18 | COc1cc2ncnc(N3CCC(CN)CC3)c2cc1OC | 144 to 146
19 | NN(CCO)C(=O)Nc1ccc(Cl)cc1 | 141 to 142
20 | CCCCC#CCC#CCC#CCCCCCCC(=O)O | 48.5 to 49.5
21 | Cc1noc(NS(=O)(=O)c2ccccc2-c2ccc(-n3cccn3)cc2)c1C | 88 to 98
22 | CON=C1CCC(C)(C)c2cc(C)c(-c3cc(C=C4SC(=O)NC4=O)ccc3Cl)cc21 | 252 to 254
23 | O=C1NC(=O)C2(CCOC2)N1 (stereo unspecified) | 202 to 204

Row | Structure (SMILES) | melting point [°C]
24 | OC(CNCCCc1ccc(OCCOCCc2ccccc2)cc1)COc1ccccc1 (racemic) | 76 to 78
25 | COc1cc(OC)nc(Oc2ccnc3cc(Cl)ccc23)n1 | 119 to 120
26 | CCNC(=S)n1nc(Oc2c(F)cc(C(F)(F)F)cc2Cl)cc1C | 114 to 115
27 | NS(=O)(=O)c1nc(-c2ccc([N+](=O)[O-])cc2)c[nH]1 | 227 to 229
28 | COc1ccc(-c2nc(-c3cccn3CC(=O)OC(C)C(C)C)sc2-c2ccc(OC)cc2)cc1 (stereo unspecified) | 88.5 to 91.5
29 | N#CCCCSc1nccc(NC(=S)NCC(F)(F)F)n1 | 125 to 126
30 | N[C@@H]1Cc2c(Br)ccc3c2[C@@H](C1)CN3C(=O)c1ccccc1 | 169 to 173
31 | CC(C)(C)NC(=O)CP(=O)(O)O | 163 to 165
32 | CC(C)(C)Sc1c(CC(C)(C)C(=O)O)n(Cc2ccc(Cl)cc2)c2ccc(OCc3cscn3)cc12 | 194 to 195
33 | CCOC(=O)C(C)(C)OC(=O)c1cc(-n2c(=O)cc(C(F)(F)C(F)(F)F)[nH]c2=O)ccc1Cl | 141 to 143
34 | Oc1ccc(-c2cc3cc(O)cc(Cn4ccnc4)c3o2)cc1 | 269 to 271
35 | CSc1nc2cncnc2n1Cc1ccc(F)cc1 | 167
36 | COC(C)CNc1nccc(-c2ccnc(Nc3cccc(F)c3)c2)n1 (stereo unspecified) | 103 to 105
37 | NS(=O)(=O)c1cccc(-c2noc(-c3cnn4c(C(F)F)cc(-c5ccc(C(F)(F)F)cc5)nc34)n2)c1 | 267
38 | CCc1nc([N+](=O)[O-])c(CBr)n1C | 91 to 93
39 | Cc1cccc(NC(=O)NC2N=C(c3ccccc3F)c3ccccc3N(Cc3ccccn3)C2=O)c1 (racemic) | 215 to 216
40 | C=CCOc1ccc(Cl)cc1C(=O)OC | 25 to 26
41 | CCCCOC(=Cn1ccnc1)c1ccc(Cl)cc1Cl | 205 to 207
42 | CCC(C)NC(Nc1cc(Cl)cc(Cl)c1)=C(C#N)S(=O)(=O)c1ccc(Cl)cc1 (stereo unspecified) | 150 to 152
43 | Cc1c(-c2ccc(OC(C)C)cc2)n(Cc2ccc(OCCN3CCCCC3)cc2)c2ccc(O)cc12 | 120 to 125
44 | CC(C)N1CCN(Cc2ccc(NC(=O)c3cccc4cc(Oc5cc(N)ncn5)ccc34)cc2C(F)(F)F)CC1 | 185 to 189
45 | CC(C)(C)[Si](C)(C)Oc1ccc(NC(=O)CCl)cc1 | 107 to 108
46 | CNC(=O)[C@@H](C[C@H](O)[C@H](CC1CCCCC1)NC(=O)OC(C)(C)C)C(C)(C)O | 174 to 175

Row | Structure (SMILES) | melting point [°C]
47 | CC(C)(C)OC(=O)Nc1ccc(F)cc1C(F)(F)F | 61 to 62
48 | CC(C)(CCc1cc2nc(Cl)ccc2n1S(=O)(=O)c1ccc2ncsc2c1)C(=O)O | 21
49 | CCc1nc2c(C)nn(C)c2c2nc(C)cn12 | 182 to 183
50 | CCOC(=O)c1nocc1O | 59 to 60
51 | C=CC(C)OC(=O)c1c(C)nc2c(cnn2CCCCC)c1N (stereo unspecified) | 64.6 to 67.2
52 | CC(C)=CCc1cc2cc(-c3cc(O)cc(O)c3)oc2cc1O | 183 to 184
53 | CCc1ccc(N(Cc2ccc(N3CCOCC3)cc2)C(=O)Nc2c(C(C)C)cccc2C(C)C)cc1 | 159 to 161
54 | COc1ccc(S(=O)(=O)Nc2ccccc2Nc2ccc(Cl)cc2)cc1 | 127 to 128
55 | Oc1ccc(-c2nn(-c3ccc(Br)cc3)c3cc(O)ccc23)c(O)c1 | 246
56 | c1cnc2c(OCCOc3nccnc3N3CCNCC3)cccc2c1 | 98 to 100
57 | Cc1cc(C(O)=S)c(Cl)cc1Cl | 187
58 | CCOC(=O)C(=O)Nc1c([N+](=O)[O-])sc2ccc(F)cc12 | 129 to 131
59 | CCCCS(=O)(=O)Nc1cccc(OCc2ccc3ccccc3n2)c1 | 105 to 106
60 | COc1ccc(CCN(CCc2ccc(-c3ccccc3)cc2)C(=O)CCCCC(N)=O)cc1OC | 177 to 179
61 | O=[N+]([O-])c1ccc(O)cc1SCCO | 161
62 | Cc1cc(NCCO)n2ncc([N+](=O)[O-])c2n1 | 231
63 | Nc1ccc2nc(-c3ccc4c(c3)OCO4)ncc2c1 | 191 to 192
64 | CCN1CCc2cc(Nc3ncc(Cl)c(N[C@@H]4CCCC[C@H]4NS(C)(=O)=O)n3)c(OC)cc2CC1=O | 139 to 150
65 | O=C(O)c1cccc(NC(=O)c2sc3c([N+](=O)[O-])c(O)c(O)cc3c2Cl)c1 | 293 to 294
66 | Cc1c([N+](=O)[O-])ccnc1C(=O)NCCNC(=O)OC(C)(C)C | 133 to 134
67 | CCCCNc1ccc(OC)c(Cl)c1Cl | 47 to 49

The next lines start with the values.

Row | melting point [°C] | Structure (SMILES)
68 | 261 to 272 | COc1ccccc1CN1C(=O)C2CCCC2N(C(=O)CN2C(=O)c3ccccc3C2=O)c2ccccc21 (stereo unspecified)
69 | 122 to 127 | Cc1cccc2c(-c3ccccc3)c([N+](=O)[O-])oc12
70 | 76 to 77 | COC1(c2cccc(OCc3ccc4ccccc4c3)c2)CCN(CC#N)C1 (stereo unspecified)
71 | 204 to 206 | Cc1ccc(C(=O)NNC(=O)c2ccccc2Cl)cc1
72 | 161 to 162 | Cn1c(C(=O)NC(CF)Cc2ccccc2)cc2c(O)cccc21 (stereo unspecified)
73 | 134 to 136 | Cc1ccccc1C1SCCCN1C(=S)Nc1cccc(Cl)c1 (stereo unspecified)
74 | 158 to 159 | Cc1nnc(-c2ccc3ncn(C4CCN(C(=O)c5ccccc5)CC4)c3c2)o1
75 | 124 to 126 | CCOC(=O)c1c(N2CCN(Cc3ccccc3)CC2)n[nH]c1C
76 | 195 | COCOCC(=O)C1CCC2C3CCC4=CC(=O)CCC4(C)C3CCC12C (stereo unspecified)
77 | 164 to 165 | O=C(C1CC1)N1CC2CC2(c2ccccc2)C1 (stereo unspecified)
78 | 60 to 61 | O=C(OCCCSc1cccc2nccn12)c1ccccc1
79 | 195 to 196 | CC(C)N1C(=O)c2cnc(-c3ccccc3)nc2Nc2ccccc21
80 | 178 to 180 | CCNc1cccnc1N1CCN(C(=O)c2ccc(C(=O)NCCO)cn2)CC1
81 | 124 to 126 | CC(=O)NC1(c2ccc(CN3CCN(c4ccc(F)cc4)CC3)cc2)CC1
82 | 97 to 98 | O=C(CCCCCS(=O)(=O)Nc1ccccc1)NO
83 | 171 to 173 | O=C1NCc2c(Oc3ccccc3)cccc2N1Cc1ccccc1
84 | 101 to 103 | O=[N+]([O-])c1ccc(OCc2ccccc2)cc1OCc1ccccc1

Row | melting point [°C] | Structure (SMILES)
85 | 147 to 148 | CCOC(=O)N1CCN(C(=O)C2CCC(=O)N2)CC1 (stereo unspecified)
86 | 145 to 146 | O=C(O)CCc1ccc(OCCN2CCCC2=O)cc1Oc1ncc(C(F)(F)F)cc1Cl
87 | 102 to 103 | Oc1cccc2c(CCc3ccccc3)ccnc12
88 | 106 to 108 | CC1(C)OCCN1C(=O)C=Cc1ccc(F)cc1
89 | 191 | CCOC(=O)C1=C(N)NC(N)=C(C(=O)OCC)C1c1ccccc1C(F)(F)F
90 | 152 to 155 | Nc1ccc(Cl)c(S(=O)c2ccccc2)c1 (stereo unspecified)
91 | 46 to 48 | COc1ccc(C[C@@H]2CCc3ncc(C)cc3C2)cc1
92 | 146 to 148 | CC(C)c1cccc(C(C)C)c1NC(=O)CC(=O)CC(c1ccccc1)c1ccccc1
93 | 158 to 162 | N=C1C2CC(F)CN2C(=O)CN1C1CCC(Cn2cncn2)C1 (stereo unspecified)
94 | 123 to 125 | CN1c2ccccc2N(Cc2ccccc2)C(=O)[C@H]2CCC[C@H]21 (relative stereo)
95 | 122 to 124 | COc1ccc2c(c1)CCC1C2CCC2(C)C1CCC2N(C)CCCO (stereo unspecified)
96 | 130 | COC(=O)c1cc2ccc(OC)cc2n1CCN1CCC(NCc2cc3c(cn2)OCCO3)CC1
97 | 165 to 166 | Cc1c(-c2ccccc2)c(N2CC[C@H](N(C)C)C2)c2oc(/C=C/c3ccccc3)nc2c1C#N
98 | 97 to 98 | CC(c1ccccc1)(c1ccc(OC(=O)CCl)cc1)c1ccc(OC(=O)CCl)cc1
99 | 82 to 83 | CC(C)C[C@@H](NC(=O)OC(C)(C)C)C(=O)N[C@H](C(=O)OCc1ccccc1)C(C)C
100 | 146 | Cc1cccc(N2CCN(c3ccc(Br)nn3)CC2)c1
101 | 275 to 277 | CC(=O)Nc1c(-c2ccccc2)c(=O)[nH]c2cc(Cl)ccc12
